From US10118930B2, “Piperidinylpyrazolopyrimidinones and their use” (BAYER PHARMA AKTIENGESELLSCHAFT, priority 2015, dated 2018)
Counter-ions that a name gives are not always drawn.

Test system: clot lysis (fibrinolysis) in diluted human citrated plasma, tPA-induced
Assay: Plasma-based clot lysis assay (5%)
Assay type: biochemical
Details: human citrated platelet-poor plasma 5%, fibrinogen 3 μM, CaCl2 10 mM, tPA 0.2 nM, 37° C., OD at 405 nm
Method: B-2. Plasma-based Clot Lysis Assay (5%)
The clot-lysis test system configures the kinetics of clot formation and degradation in vitro and allows quantifying modulation of the process by selected test compounds.
The test compounds were dissolved in 1% acetic acid and further complemented with an equal volume of DMSO. The resulting stock solutions were serially diluted in 0.5% acetic acid/50% DMSO. 1 μL aliquots of these solutions were placed into 384 well microplates (Greiner, black, transparent bottom), followed by 30 μL of diluted human citrated plasma (platelet-poor, final concentration: 5%; supplemented with fibrinogen, final concentration: 3 μM; dilution buffer: 20 mM HEPES, 150 mM NaCl, 0.01% Brij (pH 7)). The reactions were started by addition of 20 μL of CaCl2 (final concentration: 10 mM), and tPA (tissue plasminogen activator, final concentration: 0.2 nM) in dilution buffer, followed by an additional volume of 20 μL dilution buffer for improved mixing. The reactions were incubated at 37° C. […] IC50 values were determined by comparing the resulting time courses with the time course of a blank control reaction.

In order of rising IC50:
1. CCC(C)C(=O)c1cnn2c(C3CCNCC3)cc(=O)[nH]c12 (stereo not shown) [Example 452, 3-(2-methylbutanoyl)-7-(piperidin-4-yl)pyrazolo[1,5-a]pyrimidin-5 (4H)-one hydrochloride]  0.008 µM
2. O=c1cc(C2CCNCC2)n2ncc(-c3nc(C4CCCCC4)cs3)c2[nH]1 [Example 335, 3-(4-cyclohexyl-1,3-thiazol-2-yl)-7-(piperidin-4-yl)pyrazolo[1,5-a]pyrimidin-5(4H)-one hydrochloride]  0.009 µM
3. O=C(c1cnn2c(C3CCNCC3)cc(=O)[nH]c12)N1CCCCC1 [Example 327, 7-(piperidin-4-yl)-3-(piperidin-1-ylcarbonyl)pyrazolo[1,5-a]pyrimidin-5(4H)-one hydrochloride]  0.009 µM
4. Cc1nn2c(C3CCNCC3)cc(=O)[nH]c2c1-c1nc(Cc2ccc(O)cc2)no1 [Example 446, 3-[3-(4-hydroxybenzyl)-1,2,4-oxadiazol-5-yl]-2-methyl-7-(piperidin-4-yl)pyrazolo[1,5-a]pyrimidin-5(4H)-one hydrochloride]  0.01 µM
5. O=c1cc(C2CCNCC2)n2ncc(-c3cccc(OC(F)(F)F)c3)c2[nH]1 [Example 70, 7-(Piperidin-4-yl)-3-[3-(trifluoromethoxy)phenyl]pyrazolo[1,5-a]pyrimidin-5(4H)-one hydrochloride]  0.014 µM
6. COc1ccc(-c2cnn3c(C4CCNCC4)cc(=O)[nH]c23)cc1 [Example 53, 3-(4-Methoxyphenyl)-7-(piperidin-4-yl)pyrazolo[1,5-a]pyrimidin-5(4H)-one hydrochloride]  0.015 µM
7. NC(=O)c1c(-c2ccccc2)nn2c(C3CCNCC3)cc(=O)[nH]c12 [Example 41, 5-Oxo-2-phenyl-7-(piperidin-4-yl)-4,5-dihydropyrazolo[1,5-a]pyrimidine-3-carboxamide trifluoroacetate]  0.019 µM
8. O=c1cc(C2CCNCC2)n2ncc(-c3nnc(Cc4c(F)cccc4Cl)o3)c2[nH]1 [Example 279, 3-[5-(2-chloro-6-fluorobenzyl)-1,3,4-oxadiazol-2-yl]-7-(piperidin-4-yl)pyrazolo[1,5-a]pyrimidin-5(4H)-one hydrochloride]  0.025 µM
9. CC(C)(C)c1cnc(-c2cnn3c(C4CCNCC4)cc(=O)[nH]c23)o1 [Example 332, 3-(5-tert-butyl-1,3-oxazol-2-yl)-7-(piperidin-4-yl)pyrazolo[1,5-a]pyrimidin-5 (4H)-one hydrochloride]  0.026 µM
10. O=c1cc(C2CCNCC2)n2ncc(-c3nc(C(F)(F)F)cs3)c2[nH]1 [Example 351, 7-(piperidin-4-yl)-3-[4-(trifluoromethyl)-1,3-thiazol-2-yl]pyrazolo[1,5-a]pyrimidin-5 (4H)-one hydrochloride]  0.026 µM
11. O=c1cc(C2CCNCC2)n2ncc(-c3noc(C4CC(F)(F)C4)n3)c2[nH]1 [Example 392, 3-(5-(3,3-difluorocyclobutyl)-1,2,4-oxadiazol-3-yl)-7-(piperidin-4-yl)pyrazolo[1,5-a]pyrimidin-5(4H)-one hydrochloride]  0.027 µM
12. O=c1cc(C2CCNCC2)n2ncc(-c3nc(C(O)c4ccccc4)no3)c2[nH]1 (stereo not shown) [Example 238, 3-{3-[hydroxy(phenyl)methyl]-1,2,4-oxadiazol-5-yl}-7-(piperidin-4-yl)pyrazolo[1,5-a]pyrimidin-5(4H)-one hydrochloride]  0.028 µM
13. Cc1nn2c(C3CCNCC3)cc(=O)[nH]c2c1-c1nc(-c2cccc(Cl)c2)no1 [Example 441, 3-[3-(3-chlorophenyl)-1,2,4-oxadiazol-5-yl]-2-methyl-7-(piperidin-4-yl)pyrazolo[1,5-a]pyrimidin-5(4H)-one hydrochloride]  0.029 µM
14. O=C(Nc1cccc(Cl)c1F)c1cnn2c(C3CCNCC3)cc(=O)[nH]c12 [Example 87, N-(3-chloro-2-fluorophenyl)-5-oxo-7-(piperidin-4-yl)-4,5-dihydropyrazolo[1,5-a]pyrimidine-3-carboxamide hydrochloride]  0.03 µM
15. O=c1cc(C2CCNCC2)n2ncc(-c3nnc(O)o3)c2[nH]1 [Example 286, 3-(5-hydroxy-1,3,4-oxadiazol-2-yl)-7-(piperidin-4-yl)pyrazolo[1,5-a]pyrimidin-5(4H)-one hydrochloride]  0.033 µM
16. Cc1nn2c(C3CCNCC3)cc(=O)[nH]c2c1C(=O)N1CCCC(C(C)C)C1 (stereo not shown) [Example 408, 3-[(3-isopropyl-piperidin-1-yl)carbonyl]-2-methyl-7-(piperidin-4-yl) pyrazolo[1,5-a] pyrimidin-5(4H)-one hydrochloride]  0.034 µM
17. O=c1cc(C2CCNCC2)n2ncc(-c3nnc(-c4ccco4)o3)c2[nH]1 [Example 178, 3-[5-(2-furyl)-1,3,4-oxadiazol-2-yl]-7-(piperidin-4-yl)pyrazolo[1,5-a]pyrimidin-5 (4H)-one hydrochloride]  0.034 µM
18. CC(C)S(=O)(=O)Cc1noc(-c2cnn3c(C4CCNCC4)cc(=O)[nH]c23)n1 [Example 201, 3-{3-[(isopropylsulfonyl)methyl]-1,2,4-oxadiazol-5-yl}-7-(piperidin-4-yl)pyrazolo[1,5-a]pyrimidin-5(4H)-one hydrochloride]  0.034 µM
19. COCc1nnc(-c2cnn3c(C4CCNCC4)cc(=O)[nH]c23)o1 [Example 173, 3-[5-(methoxymethyl)-1,3,4-oxadiazol-2-yl]-7-(piperidin-4-yl)pyrazolo[1,5-a]pyrimidin-5(4H)-one hydrochloride]  0.034 µM
20. O=c1cc(C2CCNCC2)n2ncc(-c3nc(-c4cc(C(F)(F)F)ccn4)no3)c2[nH]1 [Example 147, 7-(piperidin-4-yl)-3-{3-[4-(trifluoromethyl)pyridin-2-yl]-1,2,4-oxadiazol-5-yl}pyrazolo[1,5-a]pyrimidin-5(4H)-one hydrochloride]  0.038 µM
21. Cc1ccc(-c2noc(-c3cnn4c(C5CCNCC5)cc(=O)[nH]c34)n2)cc1F [Example 117, 3-[3-(3-Fluoro-4-methylphenyl)-1,2,4-oxadiazol-5-yl]-7-(piperidin-4-yl)pyrazolo[1,5-a]pyrimidin-5(4H)-one hydrochloride]  0.038 µM
22. CC(C)(C)C(=O)c1cnn2c(C3CCNCC3)cc(=O)[nH]c12 [Example 456, 3-(2,2-dimethylpropanoyl)-7-(piperidin-4-yl)pyrazolo[1,5-a]pyrimidin-5(4H)-one hydrochloride]  0.039 µM
23. O=C(Nc1cccc2ccccc12)c1cnn2c(C3CCNCC3)cc(=O)[nH]c12 [Example 75, N-(naphthalen-1-yl)-5-oxo-7-(piperidin-4-yl)-4,5-dihydropyrazolo[1,5-a]pyrimidine-3-carboxamide]  0.04 µM
24. O=c1cc(C2CCNCC2)n2ncc(-c3nc(-c4c(Cl)cc(C(F)(F)F)cc4Cl)no3)c2[nH]1 [Example 150, 3-{3-[2,6-Dichloro-4-(trifluoromethyl)phenyl]-1,2,4-oxadiazol-5-yl}-7-(piperidin-4-yl)pyrazolo[1,5-a]pyrimidin-5(4H)-one hydrochloride]  0.045 µM
25. O=C(O)c1noc(-c2cnn3c(C4CCNCC4)cc(=O)[nH]c23)n1 [Example 221, 5-[5-oxo-7-(piperidin-4-yl)-4,5-dihydropyrazolo[1,5-a]pyrimidin-3-yl]-1,2,4-oxadiazole-3-carboxylic acid hydrochloride]  0.048 µM
26. Cc1nn2c(C3CCNCC3)cc(=O)[nH]c2c1-c1nnc(-c2ccccc2F)o1 [Example 445, 3-[5-(2-fluorophenyl)-1,3,4-oxadiazol-2-yl]-2-methyl-7-(piperidin-4-yl)pyrazolo[1,5-a]pyrimidin-5(4H)-one hydrochloride]  0.056 µM
27. O=c1cc(C2CCNCC2)n2ncc(-c3nnc(-c4ccccc4C(F)(F)F)o3)c2[nH]1 [Example 172, 7-(piperidin-4-yl)-3-{5-[2-(trifluoromethyl)phenyl]-1,3,4-oxadiazol-2-yl}pyrazolo[1,5-a]pyrimidin-5(4H)-one hydrochloride]  0.059 µM
28. O=C(NCC1CCCC1)c1cnn2c(C3CCNCC3)cc(=O)[nH]c12 [Example 77]  0.062 µM
29. Cc1ccc(-c2noc(-c3cnn4c(C5CCNCC5)cc(=O)[nH]c34)n2)c(C)c1 [Example 127, 3-[3-(2,4-Dimethylphenyl)-1,2,4-oxadiazol-5-yl]-7-(piperidin-4-yl)pyrazolo[1,5-a]pyrimidin-5(4H)-one hydrochloride]  0.062 µM
30. O=C(O)c1cc2[nH]c(=O)cc(C3CCNCC3)n2n1 [Example 46, 5-Oxo-7-(piperidin-4-yl)-4,5-dihydropyrazolo[1,5-a]pyrimidine-2-carboxylic acid hydrochloride]  0.069 µM
31. O=c1cc(C2CCNCC2)n2ncc(-c3nc(C4CCC4)no3)c2[nH]1 [Example 108, 3-(3-cyclobutyl-1,2,4-oxadiazol-5-yl)-7-(piperidin-4-yl)pyrazolo[1,5-a]pyrimidin-5(4H)-one]  0.076 µM
32. COC(=O)c1cc2[nH]c(=O)cc(C3CCNCC3)n2n1 [Example 28, Methyl 5-oxo-7-(piperidin-4-yl)-4,5-dihydropyrazolo[1,5-a]pyrimidine-2-carboxylate]  0.11 µM
33. CN(C)Cc1cnn2c(C3CCNCC3)cc(=O)[nH]c12 [Example 342, 3-[(dimethylamino)methyl]-7-(piperidin-4-yl)pyrazolo[1,5-a]pyrimidin-5(4H)-one hydrochloride]  0.17 µM
34. O=c1cc(C2CCNCC2)n2ncc(-c3ccccc3F)c2[nH]1 [Example 56, 3-(2-Fluorophenyl)-7-(piperidin-4-yl)pyrazolo[1,5-a]pyrimidin-5(4H)-one hydrochloride]  0.77 µM
